Measurements reported in patent US12240853B2, “Compounds useful in HIV therapy” (GlaxoSmithKline Intellectual Property (No.2) Limited, priority 2019, dated 2025).

Legend:
[1] = Example 18 dog PK studies (SC and IM); type: in vivo, beagle dogs; settings: beagle dog, single SC or IM injection, 5 mg parent/kg
From the text: Example 18 referenced herein was made in accordance with Synthesis B. Six male beagle dogs (+1 spare) were selected from the Testing Facility's colony of non-naïve animals. The animals were assigned to the study based on acceptable health as determined by a Testing Facility veterinarian. Six animals were selected and placed into two groups of three animals each. Fasting of the animals before or after dosing was not required.
On Day 1 each animal in Group 1 received a single intrascapular subcutaneous injection of prepared test article at a target dose level of 5 mg parent/kg in 2% P404/2% PEG3350/PBS (dose concentration 97.36 mg/mL prodrug) and at a dose volume of 0.1 mL/kg. Each animal in Group 2 received a single intramuscular injection of prepared test article in a hind quarter (quadriceps) at a target dose level of 5 mg parent/kg in 2% P404/2% PEG3350/PBS (dose concentration 97.36 mg/mL prodrug) and at a dose volume of 0.1 mL/kg. The animals were manually restrained for dosing and were not sedated. The dose sites were clipped of hair and wiped with alcohol before dosing. […]
The PK plasma samples were analyzed approximately every two weeks by the Testing Facility to determine the concentration of Example 18 (prodrug) and parent using an LC-MS/MS Research Grade Assay (RGA-1) with sensitivity to 0.1 ng/mL. […]

[2] = Example 18 rat PK studies (SC and IM); type: in vivo, Wistar Han rats; settings: single SC or IM injection, 20 mg parent/kg
From the text: Example 18 referenced herein was made in accordance with Synthesis B. A total of seven naïve male Wistar Han rats, 250-275 g, were received from the supplier equipped with a surgically-implanted jugular vein catheter (JVC) to facilitate blood sample collection during the first several days of the study. Following an acclimation period, the animals were assigned to the study based on acceptable health as determined by a staff veterinarian and catheter patency. Six animals were placed into two groups of 3 rats per group. Fasting of the animals before or after dosing was not required.
On Day 1 each animal in Group 1 received a single intrascapular subcutaneous injection of prepared test article at a target dose level of 20 mg parent/kg and at a dose volume of 0.49 mL/kg. Each animal in Group 2 received a single intramuscular injection of prepared test article into a thigh muscle at a target dose level of 20 mg parent/kg and at a dose volume of 0.49 mL/kg. The animals were manually restrained for dosing and were not sedated. […]
Interim blood samples for PK (Groups 1A and 2A) were collected from the jugular vein catheter or by venipuncture of a jugular vein if the catheter was not patent. […] The PK plasma samples were analyzed every 1-2 weeks by the Testing Facility to determine the concentration of prodrug and parent using an LC-MS/MS Research Grade Assay (RGA-1) with sensitivity to 0.1 ng/mL. […]

[3] = tested on: HIV pseudotyped virus, M184V; type: cell-based; settings: U373 cells (CD4, CXCR4 or CCR5), luciferase signal after 3 days

C#C[C@]1(COC(=O)CCCCCCCCC)O[C@@H](n2cnc3c(N)nc(F)nc32)C[C@@H]1OC(=O)CCCCCCCCC [Example 18, (2R,3S,5R)-5-(6-amino-2-fluoro-9H-purin-9-yl)-2-((decanoyloxy)methyl)-2-ethynyltetrahydrofuran-3-yl Decanoate]
Clinical observations and dose site reactions [1]: All animals appeared normal at the time of each observation and no dose site reactions were observed | Clinical observations and dose site reactions [2]: All animals appeared normal at the time of each observation and no dose site reactions were observed | IC50 [3]: 73 nM
